Key:
[1] = system: RBC; assay: MIRCA functional assay of RBC deformability, quantitative microcapillary occlusion (Occlusion Index); assay type: cell-based, human; conditions: people with variant SCD (HbSC) and SCA (HbSS)
Description: Abnormal RBC deformability contributes to the underlying pathophysiology of SCD, and we tested this in variant SCD and sickle cell trait (SCT). We have developed MIRCA, a novel functional assay of RBC deformability, assessed by quantitative microcapillary occlusion (‘Occlusion Index, OI’, FIG. 18). This in vitro test recapitulates key geometric features of the capillary bed: >80,000 narrow openings and side anastomoses ‘on-a-chip’, under normoxia or hypoxia (FIG. 18).

[2] = system: healthy RBCs; assay: microfluidic assay of RBC mediated microvascular occlusion (micropillar arrays with integrated electrical impedance measurement); assay type: cell-based, human; conditions: RBCs stiffened with 0.08% w/v glutaraldehyde 10 min, 20% hematocrit, mean±SD, N=4; for RBC Electrical Impedance Index (REI): impedance at 10 kHz
Method: In order to validate the microfluidic device functionality of assessing RBC mediated microvascular occlusion, healthy RBCs were isolated and treated with 0.08% w/v glutaraldehyde (Sigma Aldrich) for 10 min at room temperature. The glutaraldehyde-stiffened RBCs were then washed with PBS, mixed with untreated healthy RBCs from the same donor at either 1% or 2% v/v ratio, and re-suspended in PBS at 20% hematocrit for testing. Healthy RBCs from the same healthy donor were included in the study design as control.
Microchannels were initially washed with absolute ethanol (100%) and PBS, which was followed by incubation with 2% bovine serum albumin (BSA) overnight to prevent non-specific binding of RBCs to the channel walls. A Flow-EZ™ microfluidic flow control system (Fluigent, Lowell, MA) was used to regulate the flow (FIG. 12). An impedance analyzer (Agilent 4294A, Santa Clara, CA) coupled with a custom printed-circuit board was used to perform electrical impedance measurements. Briefly, impedance magnitude across each of the 3-μm to 10-μm micropillar arrays was recorded over the frequency range of 40 Hz-1 MHz before introducing blood into the microchannel and after completing the washing step. […]
Prior to the experiment, PBS was perfused through the microchannel at 100 mBar for 15 min to allow for any volumetric changes of the microchannel. Thereafter, the baseline impedance reading was obtained for each micropillar array without stopping the PBS flow. […] A second impedance reading was then obtained for each micropillar array upon the conclusion of the post-perfusion wash step. […] For select experiments, the electrical impedance of the 3-μm micropillar array was continuously monitored over the entire duration of the experiment.
To determine the association between the electrical impedance change and microcapillary occlusion in the microchannel, an Olympus IX83 inverted motorized microscope with Olympus CellSense live-cell imaging and analysis software were used to obtain high-resolution microscopic images. The images were further processed by Adobe Photoshop software (San Jose, CA), in which the obstructed microcapillaries were manually counted. […]
[formula] [formula] • where, • n=Total number of capillary networks within the area of interest • i=The i^th capillary network within the area of interest • Oi; =The number of microcapillary occlusion in the i^th capillary network • Ni=Total number of microcapillaries in the i^th capillary network • Ii1=The first electrical impedance reading of the i^th capillary network • Ii2=The second electrical impedance reading of the i^th capillary network […]

[3] = sample 98% healthy RBCs and 2% stiff RBCs
[4] = sample 99% healthy RBCs and 1% stiff RBCs

In the case of `NC(=O)NO` [hydroxyurea], the “association of RBC Occlusion Index (OI) with drug use” value [1] is reported as “inversely associated”.
For `O=CCCCC=O` [glutaraldehyde], the “RBC Electrical Impedance Index (REI)” value [2, 3] was 20.99%, the “RBC Occlusion Index (ROI)” value [2, 3] was 36.16% and the “RBC Electrical Impedance Index (REI)” value [2, 4] was 9.40%. The “RBC Occlusion Index (ROI)” value [2, 4] was 17.15%.

— US20250281929A1, “MICROFLUIDIC DEVICE AND USES THEREOF” (CASE WESTERN RESERVE UNIVERSITY, priority 2020, published 2025)
